Assay results: patent US8658699B2, “Chemical permeation enhancers enhance nerve blockade by toxins” (priority 2008, dated 2014)
Where “and” joins values, the source holds several entries; their conditions need not be identical. Identical values can stand only once. Like-named read-outs stand apart in the source and are kept apart here.

Columns and labels:
[1] = test system: sciatic nerve; details: for % Animals with Effective Block / Duration of Sensory Block: Bupivacaine 1.4 mM with the EC50eff of each CPE, listed as '—' = bupivacaine alone; for Duration of Sensory Block: median; for TTX block duration compared to TTX alone: 30 μM TTX with CPE at the concentration giving maximum percentage of block, p<0.001; for Maximum Block Duration (MBD, minutes): CPE co-injected with 30 μM TTX, 0.3 mL at sciatic nerve, median (25th-75th percentiles); for ECMBD: CPE concentration that caused the maximum prolongation of block from 30 μM TTX; for CPE Concentration: lowest CPE concentration needed to achieve the highest percentage of animals with block, with 30 μM TTX; for EC50: read-out: EC50eff
[2] = test system: sciatic nerve; details: 0.1-0.3 mL of 0.25%-0.5% (8.7-17 mM) bupivacaine (Kohane 1998, 1999); cited from earlier work
[3] = test system: C2C12 myotubes; details: for % Survival: C2C12 myotubes, 2-hour exposure to each CPE at its EC50eff, head 'TTX 30 μm with:', mean ± SD, from FIG. 2
[4] = test system: sciatic nerves and surrounding muscle
[5] = test system: sciatic nerve; test: animal or person; details: Rattus norvegicus, read-out: EC50eff (mM)
[6] = test system: sciatic nerve; format: in vivo, Sprague-Dawley rats
[7] = 30 μM TTX with CPE, effective if latency >7 seconds at any point, listed as '—' = TTX alone
[8] = EC50eff of each enhancer without TTX, four days after injection, 4 animals per group

Compound	% Animals with Effective Block [1]	Duration of Sensory Block [1]	TTX block duration compared to TTX alone [1]	Highest % Animals with Effective Block [1, 7]	Maximum Block Duration (MBD, minutes) ([1]; listed as '—' = TTX alone)	ECMBD [1]	CPE Concentration [1]	EC100 min ([1]; rat, in vivo)	% Survival [3]	histology: muscle and nerve injury [4, 8]	EC50 [5]	further results
CCCCN1CCCCC1C(=O)Nc1c(C)cccc1C (stereo not drawn) [Bupivacaine, bupivacaine, reference compound]	42%	0 min										successful blocks [2]: > 99%
CCCCCCCCCCCC[N+](C)(C)C.[Br-] [DDAB, Dodecyl-trimethyl-ammonium Bromide]	0%	0 min	significantly improved TTX block duration	100%	606 (452-788) minutes	8 mM	6 mM	1 mM	5 ± 0.2%	moderate to severe infiltration of macrophages and lymphocytes, atrophy and degeneration of muscle fibers, and fibrosis of the tissue	6 mM	resolution of nerve block ([1]; 30 μM TTX in 32 mM DDAB): none of those rats' nerve blocks resolved; nerve blockade by CPE alone ([1]; 32 mM DDAB alone, without TTX, the exception to 'CPE alone did not cause nerve blockade'): with one exception; histology: tissue damage ([4]; 3% (97.3 mM) DDAB, two animals): deep and severe tissue damage, including ischemic necrosis, accompanied by severe and extensive inflammation; histology: muscle and nerve injury ([4]; EC50eff of the enhancers together with 30 μm TTX): severe lymphocytic inflammatory infiltration of muscle with degenerative changes, regenerative changes, and fibrosis
CCCCCCCC[N+](C)(C)C.[Br-] [OTAB, Octyl-trimethyl-ammonium Bromide]	0%	0 min	significantly improved TTX block duration	100%	353 (327-361) minutes	119 mM	40 mM	31 mM	53 ± 2%	no significant muscle or nerve injury	30 mM	
Cc1cccc(C)c1NC(=O)C[N+](C)(C)C [QX-222, 2-((2,6-dimethylphenyl)amino)-N,N,N-trimethyl-2-oxoethanaminium]												thermal nociceptive and motor blockade of the combination with TTX ([6]; 25 and 70 mM QX-314 or 70 and 100 mM QX-222 with 30, 40 or 50 μM TTX, FIGS. 5A and B): increased blockade significantly more than the mere cumulative value of the anesthetics alone
CC[N+](CC)(CC)CC(=O)Nc1c(C)cccc1C [QX-314, N-(2,6)dimethylphenylcarbamoylmethyl triethylammonium bromide]												thermal nociceptive and motor blockade of the combination with TTX ([6]; rat, in vivo): increased blockade significantly more than the mere cumulative value of the anesthetics alone
CCCCCCCCCCCCOS(=O)(=O)[O-].[Na+] [SLS, Sodium Dodecyl Sulfate]	50%	22 min	significantly improved TTX block duration	88%		35 mM	17 mM		17 ± 11%	no significant muscle or nerve injury	4 mM	EC100 min ([1]; interpolated concentration of CPE that increased block duration of 30 μM TTX to 100 min): 3 mM
CCCCCCCCOS(=O)(=O)[O-].[Na+] [SOS, Sodium Octyl Sulfate]	25%	0 min	significantly improved TTX block duration	100%	521 (361-669) minutes	86 mM	32 mM	22 mM	5 ± 3%	no significant muscle or nerve injury	32 mM	
NC1=N[C@H](O)[C@H]2[C@H]3O[C@]4(O)O[C@@H]([C@@H](O)[C@@]2(N1)[C@@H]4O)[C@]3(O)CO [TTX, tetrodotoxin, reference compound]												% of animals with sensory blockade (effective nerve block) ([1]; rat, in vivo): 29% and 29.2%; Highest % Animals with Effective Block ([1]; rat, in vivo): 29%
polysorbate 20 [TW 20]	25%	0 min	significantly improved TTX block duration	100%	163 (129-206) minutes	49 mM	4 mM	4 mM	94 ± 3%	no significant muscle or nerve injury		EC50 ([1]; CPE concentration causing half-maximal increase in duration of block (half-MBD) of 30 μM TTX): 3 mM; C2C12 viability after longer exposure ([3]; CPE at EC50eff, 8-hour exposure / increasing duration of exposure (data not shown)): remained at untreated-control levels; histology: muscle and nerve injury ([4]; Tween 20 at 24.4 and 81.4 mM): progressively worsening (mild to moderate) muscle atrophy and inflammation
polysorbate 80 [TW 80]	0%	0 min	significantly improved TTX block duration	100%	120 (111-143) minutes	81 mM	81 mM	40 mM	80 ± 8%	no significant muscle or nerve injury		EC50 ([1]; rat, in vivo): 34 mM
